Where two headings read alike, the source gives them in different places.
Tests used:
IKKε = target: T1, IKKε (Homo sapiens, UniProt Q14164); experiment: In-vitro IKKε kinase assay ([γ33]ATP filter-plate); format: biochemical
T1 construct: His-tag; made in house; host or cells: Sf9 insect cells
T1 sequence (Q14164 1-716): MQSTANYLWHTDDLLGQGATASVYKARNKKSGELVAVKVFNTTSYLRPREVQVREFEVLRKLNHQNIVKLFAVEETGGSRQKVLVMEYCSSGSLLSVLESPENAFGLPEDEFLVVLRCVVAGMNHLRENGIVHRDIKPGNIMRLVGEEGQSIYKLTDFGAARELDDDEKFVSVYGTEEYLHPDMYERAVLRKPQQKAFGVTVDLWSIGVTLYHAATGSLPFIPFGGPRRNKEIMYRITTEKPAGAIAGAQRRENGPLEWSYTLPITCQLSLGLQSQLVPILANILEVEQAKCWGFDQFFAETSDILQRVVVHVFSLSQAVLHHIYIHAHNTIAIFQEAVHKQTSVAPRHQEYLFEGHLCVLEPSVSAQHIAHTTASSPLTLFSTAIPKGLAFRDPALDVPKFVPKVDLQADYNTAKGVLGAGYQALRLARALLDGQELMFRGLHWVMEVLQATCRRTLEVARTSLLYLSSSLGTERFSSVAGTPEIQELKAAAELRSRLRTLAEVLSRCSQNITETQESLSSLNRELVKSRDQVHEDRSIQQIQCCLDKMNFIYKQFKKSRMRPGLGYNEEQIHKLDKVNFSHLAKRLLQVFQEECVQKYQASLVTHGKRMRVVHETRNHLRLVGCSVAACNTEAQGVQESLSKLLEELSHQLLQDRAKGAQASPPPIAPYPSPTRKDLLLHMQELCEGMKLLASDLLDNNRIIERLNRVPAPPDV
Outline: (§1)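 His-tagged IKKε and TBK1 from Sf9 cells were assayed with myelin basic protein or casein and [γ33]ATP at 2×Km ATP (32 μM for IKKε, 60 μM for TBK1). Enzyme was 0.1 or 0.015 μg/ml for IKKε and 0.1 or 0.02 μg/ml for TBK1 (normal/sensitized). Reactions ran 30-45 min, were filter-captured, scintillation-counted, and normalized to DMSO after background subtraction.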

TBK1 = target: T2, TBK1 (Homo sapiens, UniProt Q9UHD2); experiment: In-vitro TBK1 kinase assay ([γ33]ATP filter-plate); format: biochemical
T2 construct: His-tag; made in house; host or cells: Sf9 insect cells
T2 sequence (Q9UHD2 1-729): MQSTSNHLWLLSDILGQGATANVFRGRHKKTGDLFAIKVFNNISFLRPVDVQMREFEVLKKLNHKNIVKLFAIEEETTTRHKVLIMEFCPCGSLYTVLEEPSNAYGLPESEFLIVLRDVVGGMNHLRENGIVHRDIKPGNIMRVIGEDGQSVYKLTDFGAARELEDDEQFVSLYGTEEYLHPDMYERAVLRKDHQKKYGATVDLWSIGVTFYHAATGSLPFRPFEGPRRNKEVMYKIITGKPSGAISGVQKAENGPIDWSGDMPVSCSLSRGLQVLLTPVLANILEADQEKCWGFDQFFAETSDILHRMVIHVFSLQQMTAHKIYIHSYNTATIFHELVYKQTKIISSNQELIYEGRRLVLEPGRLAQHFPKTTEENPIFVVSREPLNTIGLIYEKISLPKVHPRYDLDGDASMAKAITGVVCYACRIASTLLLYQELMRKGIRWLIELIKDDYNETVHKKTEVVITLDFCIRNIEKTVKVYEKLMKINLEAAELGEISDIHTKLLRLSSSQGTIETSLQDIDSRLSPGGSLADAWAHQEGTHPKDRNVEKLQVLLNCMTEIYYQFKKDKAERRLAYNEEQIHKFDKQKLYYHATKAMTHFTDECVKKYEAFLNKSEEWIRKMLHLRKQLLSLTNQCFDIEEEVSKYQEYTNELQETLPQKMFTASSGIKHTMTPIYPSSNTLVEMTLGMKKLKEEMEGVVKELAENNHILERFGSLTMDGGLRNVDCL
Outline: as §1

[1] = text bins, read-out: IC50 for inhibition of the kinase activity of IKKε
[2] = text bins, read-out: IC50 for inhibition of the kinase activity of TBK1

Compound `CCN(CC)CCN(CC)S(=O)(=O)Cc1ccc(Nc2nccc(-c3ccc(OC4CCOCC4)c(C#N)c3)n2)cc1` [compound 412, 1-[4-({4-[3-Cyano-4-(tetrahydro-2H-pyran-4-yloxy)phenyl]pyrimidin-2-yl}amino)phenyl]-N-[2-(diethylamino)ethyl]-N-ethylmethane-sulfonamide] has an IC50 (IKKε; [1]) of 5 to 50 nM and an IC50 (TBK1; [2]) of 10 to 100 nM.
Work on `COc1cc(Nc2nccc(-c3ccc(NC(=O)C4CC4)c(C#N)c3)n2)ccc1CN1CC(OC)C1` [compound 570, N-{2-Cyano-4-[2-({3-methoxy-4-[(3-methoxyazetidin-1-yl)methyl]phenyl}amino)pyrimidin-4-yl]phenyl} cyclopropane-carboxamide] yielded an IC50 (IKKε; [1]) of 5 to 50 nM and an IC50 (TBK1; [2]) of 10 to 100 nM.
With `COC1CN(Cc2ccc(Nc3nccc(-c4ccc(NC(=O)C5CC5)c(C#N)c4)n3)cc2)C1` [compound 634, N-{2-Cyano-4-[2-({4-[(3-methoxyazetidin-1-yl)methyl]phenyl}amino)pyrimidin-4-yl]phenyl} cyclopropane-carboxamide] the IC50 (IKKε; [1]) was 5 to 50 nM and the IC50 (TBK1; [2]) was 10 to 100 nM.
`COc1cc(Nc2nccc(-c3ccc(OC4CCOCC4)c(C#N)c3)n2)ccc1C(=O)N1CC2CC1CN2` (centres unmarked) [compound 496, 5-(2-{[4-(2,5-diazabicyclo[2.2.1]hept-2-ylcarbonyl)-3-methoxyphenyl]amino}pyrimidin-4-yl)-2-(tetrahydro-2H-pyran-4-yloxy)benzonitrile] was tested, and the IC50 (IKKε; [1]) was under 5 nM and the IC50 (TBK1; [2]) was under 10 nM.
For `COc1cc(NC(=O)NCCCN)cc(Nc2nccc(-c3ccc(OC)c(C#N)c3)n2)c1` [compound 320, 1-(3-Aminopropyl)-3-(3-{[4-(3-cyano-4-methoxyphenyl)pyrimidin-2-yl]amino}-5-methoxyphenyl)urea], the IC50 (IKKε; [1]) was 50 to 500 nM and the IC50 (TBK1; [2]) was 10 to 100 nM.
`N#Cc1cccc(-c2ccnc(Nc3ccc(N4CCOCC4)cc3)n2)c1` [compound 322, 3-(2-{[4-(Morpholin-4-yl)phenyl]amino}pyrimidin-4-yl)benzonitrile] gave an IC50 (IKKε; [1]) of 50 to 500 nM and an IC50 (TBK1; [2]) of 10 to 100 nM.
In the case of `N#Cc1cc(-c2ccnc(Nc3ccc(NC(=O)N4CCOCC4)cc3)n2)ccc1OC1CCOCC1` [Example 13, N-[4-({4-[3-cyano-4-(tetrahydro-2H-pyran-4-yloxy)phenyl]pyrimidin-2-yl}amino)phenyl] morpholin-4-carboxamide], the IC50 (IKKε; [1]) is reported as 5 to 50 nM and the IC50 (TBK1; [2]) is reported as under 10 nM.
Work on `COc1cc(Nc2nccc(-c3ccc(OC(C)C)c(C#N)c3)n2)cc(OC)c1OC` [Example 33, 2-(Propan-2-yloxy)-5-{2-[(3,4,5-trimethoxyphenyl)amino]pyrimidin-4-yl}benzonitrile] yielded an IC50 (IKKε; [1]) of under 5 nM and an IC50 (TBK1; [2]) of under 10 nM.
In the case of `CN(C)C(=O)CN(C)c1ccc(Nc2nccc(-c3ccc(OC4CCOCC4)c(C#N)c3)n2)cc1` [Example 82, N~2~-[4-({4-[3-cyano-4-(tetrahydro-2H-pyran-4-yloxy)phenyl]pyrimidin-2-yl}amino)phenyl]-N,N,N~2~- trimethylglycinamide], the IC50 (IKKε; [1]) is reported as under 5 nM and the IC50 (TBK1; [2]) is reported as under 10 nM.
Compound `COC1CN(C(=O)c2ccc(Nc3nccc(-c4ccc(NC(=O)C5CC5)c(C#N)c4)n3)cc2)C1` [compound 665, N-{2-Cyano-4-[2-({4-[(3-methoxyazetidin-1-yl)carbonyl]phenyl}amino)pyrimidin-4-yl]phenyl} cyclopropane-carboxamide] has an IC50 (IKKε; [1]) of under 5 nM and an IC50 (TBK1; [2]) of under 10 nM.
Work on `CC(C)C(=O)Nc1ccc(-c2ccnc(Nc3ccc(F)c(OCCCN4CCOCC4)c3)n2)cc1C#N` [compound 411, N-{2-Cyano-4-[2-({4-fluoro-3-[3-(morpholin-4-yl)propoxy]phenyl}amino)pyrimidin-4-yl]phenyl}-2-methylpropanamide] yielded an IC50 (IKKε; [1]) of 5 to 50 nM and an IC50 (TBK1; [2]) of 10 to 100 nM.
`C[C@H](O)C(=O)N1CCC(Oc2ccc(-c3ccnc(Nc4ccc(N5CCOCC5)cc4)n3)cc2C#N)CC1` [Example 6, 2-({1-[(2S)-2-Hydroxypropanoyl]piperidin-4-yl}oxy)-5-(2-{[4-(morpholin-4-yl)phenyl]amino}pyrimidin-4-yl)benzonitrile] was tested, and the IC50 (IKKε; [1]) was under 5 nM and the IC50 (TBK1; [2]) was under 10 nM.
With `CCOc1cccc(Nc2nccc(-c3cccc(C#N)c3)n2)c1` [Example 276, 3-{2-[(3-Ethoxyphenyl)amino]pyrimidin-4-yl}benzonitrile] the IC50 (IKKε; [1]) was 50 to 500 nM and the IC50 (TBK1; [2]) was 100 to 500 nM.
`N#Cc1cc(-c2ccnc(Nc3ccc(N4CCOCC4)cc3)n2)ccc1NN1CCOCC1` [Example 285, 2-(morpholin-4-ylamino)-5-(2-{[4-(morpholin-4-yl)phenyl]amino}pyrimidin-4-yl)benzonitrile] was tested, and the IC50 (IKKε; [1]) was 5 to 50 nM and the IC50 (TBK1; [2]) was under 10 nM.
In the case of `CC(C)C(=O)Nc1ccc(-c2ccnc(Nc3ccc(CC(=O)NCCCN4CCOCC4)cc3)n2)cc1C#N` [compound 420, N-[2-cyano-4-(2-{[4-(2-{[3-(morpholin-4-yl)propyl]amino}-2-oxoethyl)phenyl]amino}pyrimidin-4-yl)phenyl]-2-methylpropanamide], the IC50 (IKKε; [1]) is reported as 5 to 50 nM and the IC50 (TBK1; [2]) is reported as 10 to 100 nM.
In the case of `N#Cc1cc(-c2nc(Nc3ccc(N4CCOCC4)cc3)nc3[nH]cnc23)ccc1OC1CCOCC1` [compound 553], the IC50 (IKKε; [1]) is reported as 5 to 50 nM and the IC50 (TBK1; [2]) is reported as 10 to 100 nM.
For `COc1ccc(-c2ccnc(Nc3ccc(S(=O)(=O)NCCO)c(OC)c3)n2)cc1C#N` [Example 281, 4-{[4-(3-Cyano-4-methoxyphenyl)pyrimidin-2-yl]amino}-N-(2-hydroxyethyl)-2-methoxybenzene-sulfonamide], the IC50 (IKKε; [1]) was 5 to 50 nM and the IC50 (TBK1; [2]) was 10 to 100 nM.
Compound `COc1cc(-c2ccnc(Nc3ccc(N4CCOCC4)cc3)n2)cc(C#N)c1OC1CCOCC1` [compound 467, 3-methoxy-5-(2-{[4-(morpholin-4-yl)phenyl]amino}pyrimidin-4-yl)-2-(tetrahydro-2H-pyran-4-yloxy)benzonitrile] has an IC50 (IKKε; Table 3, read-out: IKKε IC50) of 3.5 nM, an IC50 (IKKε; [1]) of under 5 nM and an IC50 (TBK1; Table 3, read-out: TBK1 IC50) of 0.2 nM. For the same compound, the IC50 (TBK1; [2]) was under 10 nM.
Compound `COc1cc(NC(=O)N2CC[C@@H](O)C2)cc(Nc2nccc(-c3ccc(OC)c(C#N)c3)n2)c1` [compound 378, (3R)-N-(3-{[4-(3-Cyano-4-methoxyphenyl)pyrimidin-2-yl]amino}-5-methoxyphenyl)-3-hydroxypyrrolidine-1-carboxamide] has an IC50 (IKKε; [1]) of 5 to 50 nM and an IC50 (TBK1; [2]) of 10 to 100 nM.
Compound `N#Cc1cc(-c2ccnc(Nc3ccc(N4CCOCC4)cc3)n2)ccc1OC1CCN(C(=O)CN)CC1` [Example 268, 2-[(1-Glycylpiperidin-4-yl)oxy]-5-(2-{[4-(morpholin-4-yl)phenyl]amino}pyrimidin-4-yl)benzonitrile] has an IC50 (IKKε; [1]) of 5 to 50 nM and an IC50 (TBK1; [2]) of under 10 nM.
With `N#Cc1cc(-c2ccnc(Nc3ccc(N4CCOCC4)c(Cl)c3)n2)ccc1OC1CCOCC1` [compound 374, 5-(2-{[3-chloro-4-(morpholin-4-yl)phenyl]amino}pyrimidin-4-yl)-2-(tetrahydro-2H-pyran-4-yloxy)benzonitrile] the IC50 (IKKε; [1]) was under 5 nM and the IC50 (TBK1; [2]) was under 10 nM.
Compound `N#Cc1cc(-c2ccnc(Nc3ccc(N4CCOCC4)cc3)n2)ccc1OCCC1CCN(C(=O)CO)CC1` [compound 457, 2-{2-[1-(hydroxyacetyl)piperidin-4-yl]ethoxy}-5-(2-{[4-(morpholin-4-yl)phenyl]amino}pyrimidin-4-yl)benzonitrile] has an IC50 (IKKε; [1]) of 5 to 50 nM and an IC50 (TBK1; [2]) of 10 to 100 nM.
For `N#Cc1cc(-c2ccnc(Nc3ccc(N4CCOCC4)cc3)n2)ccc1OCCNC=O` [Example 230, N-{2-[2-cyano-4-(2-{[4-(morpholin-4-yl)phenyl]amino}pyrimidin-4-yl)phenoxy]ethyl} formamide], the IC50 (IKKε; [1]) was 5 to 50 nM and the IC50 (TBK1; [2]) was under 10 nM.
In the case of `CNCCCNS(=O)(=O)c1ccc(Nc2nccc(-c3ccc(OC4CCOCC4)c(C#N)c3)n2)cc1OC` [compound 396], the IC50 (IKKε; [1]) is reported as under 5 nM and the IC50 (TBK1; [2]) is reported as under 10 nM.
